Data published in ChEMBL document CHEMBL6083208, “Integrating amino acids into Bcr-Abl inhibitors: design, synthesis, biological evaluation, and in silico studies” (RSC Med Chem, 2024).
pIC50: −log10 of the molar value.

Key:
BaF3 [1] = test: Antiproliferative activity against mouse BaF3 cells harbouring Bcr-Abl T315I assessed of cell viability at 10 uM incubated for 72 hrs by Celltiter-glo luminescent cell viability assay relative to control; format: functional
BaF3 [2] = test: Antiproliferative activity against mouse BaF3 cells harbouring Bcr-Abl T315I assessed of cell viability at 30 uM incubated for 72 hrs by Celltiter-glo luminescent cell viability assay relative to control; format: functional
THP-1 = test: Antiproliferative activity against human THP-1 cells after 48 hrs by MTT assay; format: functional; design: concentration or dose not given beside the values
[3] = Inhibition of Bcr-Abl T315Ialpha mutant (unknown origin) using Abltide as substrate incubated for 1 hr by luminescence based ADP-glo assay; design: species or system Homo sapiens
Bcr/Abl fusion protein = Bcr/Abl fusion protein (Homo sapiens, UniProt P00519); test: Inhibition of wild type Bcr-Abl (unknown origin) using Abltide as substrate incubated for 1 hr by luminescence based ADP-glo assay; format: protein assay
HEK293 = test: Antiproliferative activity against HEK293 cells after 48 hrs by MTT assay; format: toxicity, cell-based; design: concentration or dose not given beside the values; settings: human, hek293, 48 h
BaF3 [4] = test: Antiproliferative activity against mouse BaF3 cells harbouring Bcr-Abl T315I assessed of cell viability at 2 uM incubated for 72 hrs by Celltiter-glo luminescent cell viability assay relative to control; format: functional
K562 = test: cells; settings: Homo sapiens, K562, 48 h

Chain of Bcr/Abl fusion protein (P00519 whole entry, the tested form may be a part): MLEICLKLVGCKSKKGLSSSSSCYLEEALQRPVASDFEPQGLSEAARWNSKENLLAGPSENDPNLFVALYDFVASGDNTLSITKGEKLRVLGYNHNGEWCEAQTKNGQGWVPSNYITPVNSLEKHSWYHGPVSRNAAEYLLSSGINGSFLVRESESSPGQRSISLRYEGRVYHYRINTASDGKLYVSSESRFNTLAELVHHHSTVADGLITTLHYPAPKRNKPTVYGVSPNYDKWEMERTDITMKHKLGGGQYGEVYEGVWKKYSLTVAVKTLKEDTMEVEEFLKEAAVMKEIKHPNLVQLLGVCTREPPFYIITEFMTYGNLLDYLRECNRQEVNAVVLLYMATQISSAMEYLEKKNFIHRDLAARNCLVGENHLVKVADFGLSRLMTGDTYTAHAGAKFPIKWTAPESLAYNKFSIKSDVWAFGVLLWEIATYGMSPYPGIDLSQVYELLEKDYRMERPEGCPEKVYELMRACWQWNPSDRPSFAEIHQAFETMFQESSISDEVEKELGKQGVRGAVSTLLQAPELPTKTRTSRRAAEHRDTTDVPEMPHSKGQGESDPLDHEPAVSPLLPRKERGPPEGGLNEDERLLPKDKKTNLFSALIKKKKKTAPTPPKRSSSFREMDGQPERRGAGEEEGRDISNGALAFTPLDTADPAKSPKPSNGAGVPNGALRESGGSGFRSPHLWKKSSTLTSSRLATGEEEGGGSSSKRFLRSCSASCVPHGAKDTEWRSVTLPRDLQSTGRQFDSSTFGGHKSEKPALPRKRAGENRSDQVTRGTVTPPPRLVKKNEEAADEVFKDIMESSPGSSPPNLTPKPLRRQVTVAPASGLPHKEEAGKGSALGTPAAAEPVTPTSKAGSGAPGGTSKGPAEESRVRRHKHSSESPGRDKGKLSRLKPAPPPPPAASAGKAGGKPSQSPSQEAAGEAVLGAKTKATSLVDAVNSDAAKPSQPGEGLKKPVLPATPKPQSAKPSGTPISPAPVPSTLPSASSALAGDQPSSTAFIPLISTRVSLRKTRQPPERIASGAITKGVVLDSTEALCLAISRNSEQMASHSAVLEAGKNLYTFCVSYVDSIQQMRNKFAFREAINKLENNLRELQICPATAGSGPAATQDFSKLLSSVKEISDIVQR
Chain of Bcr/Abl fusion protein (P11274 whole entry, further chain, the tested form may be a part): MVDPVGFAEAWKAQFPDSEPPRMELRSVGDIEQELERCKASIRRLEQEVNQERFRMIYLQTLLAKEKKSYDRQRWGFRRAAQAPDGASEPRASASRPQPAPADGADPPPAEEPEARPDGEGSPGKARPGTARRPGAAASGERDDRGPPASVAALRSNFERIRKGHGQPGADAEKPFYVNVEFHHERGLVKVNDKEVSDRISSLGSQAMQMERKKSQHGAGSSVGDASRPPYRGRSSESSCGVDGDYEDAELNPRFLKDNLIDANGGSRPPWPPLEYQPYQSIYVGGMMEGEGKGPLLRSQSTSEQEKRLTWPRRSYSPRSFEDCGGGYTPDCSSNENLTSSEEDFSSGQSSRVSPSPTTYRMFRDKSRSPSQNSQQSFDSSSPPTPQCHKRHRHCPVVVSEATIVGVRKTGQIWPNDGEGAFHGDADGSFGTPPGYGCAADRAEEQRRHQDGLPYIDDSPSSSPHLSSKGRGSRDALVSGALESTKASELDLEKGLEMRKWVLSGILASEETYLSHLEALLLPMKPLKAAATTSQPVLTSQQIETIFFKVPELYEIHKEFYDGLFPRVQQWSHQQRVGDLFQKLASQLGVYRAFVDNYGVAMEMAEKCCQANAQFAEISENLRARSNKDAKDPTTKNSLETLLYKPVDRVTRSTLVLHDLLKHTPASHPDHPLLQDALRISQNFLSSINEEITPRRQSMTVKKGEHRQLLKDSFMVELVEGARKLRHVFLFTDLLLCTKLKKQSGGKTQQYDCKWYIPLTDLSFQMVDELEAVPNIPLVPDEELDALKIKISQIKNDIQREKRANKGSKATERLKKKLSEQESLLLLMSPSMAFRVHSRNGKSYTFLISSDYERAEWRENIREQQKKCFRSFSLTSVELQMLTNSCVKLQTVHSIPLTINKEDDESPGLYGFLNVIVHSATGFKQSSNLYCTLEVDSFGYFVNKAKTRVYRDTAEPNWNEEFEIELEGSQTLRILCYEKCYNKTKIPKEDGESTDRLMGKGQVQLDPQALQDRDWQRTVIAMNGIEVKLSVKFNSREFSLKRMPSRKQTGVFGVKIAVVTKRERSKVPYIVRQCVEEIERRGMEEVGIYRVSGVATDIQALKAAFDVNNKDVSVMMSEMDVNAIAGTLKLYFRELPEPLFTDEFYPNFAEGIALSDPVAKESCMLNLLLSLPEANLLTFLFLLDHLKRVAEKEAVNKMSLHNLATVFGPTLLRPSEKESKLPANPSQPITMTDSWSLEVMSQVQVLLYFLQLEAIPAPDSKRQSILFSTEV

Structure (SMILES) | pIC50 [3] | pIC50 (Bcr/Abl fusion protein) | pIC50 (K562) | inhibition at 10 µM (BaF3 [1]) [%] | inhibition at 30 µM (BaF3 [2]) [%] | Activity (THP-1) [%] | Activity (HEK293) [%] | inhibition at 2 µM (BaF3 [4]) [%]
CC(C)(C)OC[C@H](NC(=O)c1ccc(-c2ccnc(N)c2)cc1)C(=O)Nc1ccc(Cl)c(C(F)(F)F)c1 | 6.84 | 9.06 | 8.52 | 25.5 | 99.8 | 56 | 94 | 0.7
CC(C)(C)C(=O)Nc1ccc(-c2cccc(C(=O)N[C@H](C(=O)Nc3ccc(Cl)c(C(F)(F)F)c3)C(C)(C)C)c2)cn1 | 6.45 | 7.58 | 9.01 | 100 | 98.1 | 73 | 81 | 99.9
CC(C)(C)OC[C@H](NC(=O)c1cccc(-c2ccc(NS(C)(=O)=O)nc2)c1)C(=O)Nc1ccc(Cl)c(C(F)(F)F)c1 | 6.86 | 7.97 | 8.59 | 99.9 | 96.7 | 77 | 88 | 0.62
CC(C)(C)[C@H](NC(=O)c1ccc(-c2cncc(C(=O)NC3CC3)c2)cc1)C(=O)Nc1ccc(Cl)c(C(F)(F)F)c1 | 6.85 | 8.10 | 8.48 | 42.6 | 100 | 100 | 91 | 5.84
Nc1ccc(-c2cccc(C(=O)N[C@@H](CO)C(=O)Nc3ccc(Cl)c(C(F)(F)F)c3)c2)cn1 | 6.83 | 8.80 | 8.67 | 15.2 | 88.3 | 84 | 93 | -0.03
CC(=O)Nc1cc(-c2ccc(C(=O)N[C@H](C(=O)Nc3ccc(Cl)c(C(F)(F)F)c3)C(C)(C)C)cc2)ccn1 | 6.74 | 8.00 | 8.48 | 31.8 | 99.8 | 68 | 88 | 4.64

Stronger by pIC50 [3], values ahead:

pIC50 [3] | pIC50 (Bcr/Abl fusion protein) | pIC50 (K562) | Structure (SMILES) | inhibition at 10 µM (BaF3 [1]) [%] | inhibition at 30 µM (BaF3 [2]) [%] | Activity (THP-1) [%] | Activity (HEK293) [%] | inhibition at 2 µM (BaF3 [4]) [%]
7.29 | 9.48 | 9.72 | CC(C)(C)OC[C@H](NC(=O)c1ccc(-c2ccnc(NS(C)(=O)=O)c2)cc1)C(=O)Nc1ccc(Cl)c(C(F)(F)F)c1 | 27.6 | 96.7 | 94 | 93 | 7.49
7.17 | 8.41 | 9.03 | CC(C)(C)[C@H](NC(=O)c1ccc(-c2ccnc(NS(C)(=O)=O)c2)cc1)C(=O)Nc1ccc(Cl)c(C(F)(F)F)c1 | 36.1 | 100 | 100 | 81 | 8.95
7.18 | 9.48 | 9.07 | CC(=O)Nc1ccc(-c2cccc(C(=O)N[C@@H](CO)C(=O)Nc3ccc(Cl)c(C(F)(F)F)c3)c2)cn1 | 24.5 | 90 | 100 | 85 | -1.17
